In US9956225B2, “Treatment of myelodysplastic syndrome” (Boehringer Ingelheim International GmbH, priority 2013, dated 2018):

Columns and labels:
[1] = tested on: human AML cell line MV4;11; test: Nude mouse xenograft model derived from human AML cell line MV4;11: tumor growth; assay type: in vivo; details: 21 days, MV4;11 xenograft in nude mice
Method: Tumor-bearing mice were treated for 3 weeks intravenously either with vehicle or once weekly with 10 mg/kg or 20 mg/kg Volasertib (BI 6727), respectively. Median tumor volumes are plotted over time. Day 1 was the first day, day 21 the last day of the experiment. Efficacy results from this xenograft model are considered valid for MDS.
MV4;11 (CRL-9591) cells were obtained from ATCC. According to the Catalogue of Somatic Mutations in Cancer of the Wellcome Trust Sanger Institute, UK, this cell line carries a mutation in the FLT3 gene. Cells were cultured in T175 tissue culture flasks at 37° C. and 5% CO2. The medium used was IMDM supplemented with 10% fetal calf serum, 1% NEAA, 1% sodium pyruvate and 1% glutamine.
Mice were 8-9 week-old athymic female BomTac: NMRI-Foxn1^nu purchased from Taconic, Denmark. After arrival in the animal facility, mice were allowed to adjust to ambient conditions for at least 3 days before they were used for experiments. They were housed in Macrolon® type II cages in groups of 5 under standardized conditions at 21.5±1.5° C. temperature and 55±10% humidity. […]
(§1) The tumor diameter was measured three times a week with a caliper. The volume of each tumor [in mm^3] was calculated according to the formula “tumor volume=length*diameter^2*π/6”. To monitor side effects of treatment, mice were inspected daily for abnormalities and body weight was determined three times a week. […]

[2] = Body weight change in MV4;11 nude mouse xenograft model (side effects); assay type: in vivo; details: 21 days, tumor-bearing nude mice
Method: Tumor-bearing mice were treated for 3 weeks intravenously either with vehicle or with 10 mg/kg or 20 mg/kg Volasertib, respectively, once weekly. Median changes in body weight compared to day 1 are plotted over time. Day 1 was the first day, day 21 the last day of the experiment.
Mice were 8-9 week-old athymic female BomTac: NMRI-Foxn1^nu purchased from Taconic, Denmark. After arrival in the animal facility, mice were allowed to adjust to ambient conditions for at least 3 days before they were used for experiments. They were housed in Macrolon® type II cages in groups of 5 under standardized conditions at 21.5±1.5° C. temperature and 55±10% humidity. Standardized diet (PROVIMI KLIBA) and autoclaved tap water were provided ad libitum.
Volasertib (BI 6727) was dissolved in hydrochloric acid (0.1 N), diluted with 0.9% NaCl and injected intravenously into the tail vein. An administration volume of 10 ml per kg body weight was used. The solution was freshly made up each injection day.
as §1

CC[C@@H]1C(=O)N(C)c2cnc(Nc3ccc(C(=O)N[C@H]4CC[C@H](N5CCN(CC6CC6)CC5)CC4)cc3OC)nc2N1C(C)C [Volasertib, N-[trans-4-[4-(cyclopropylmethyl)-1-piperazinyl]cyclohexyl]-4-[[(7R)-7-ethyl-5,6,7,8-tetrahydro-5-methyl-8-(1-methylethyl)-6-oxo-2-pteridinyl]amino]-3-methoxy-benzamide]
median T/C (ratio of median tumor volume of treated vs. control tumors) ([1]; 10 mg/kg once a week i.v.): 76% | median T/C (ratio of median tumor volume of treated vs. control tumors) ([1]; 20 mg/kg once a week i.v.): 38% | body weight gain (side effect profile) ([2]; 10 mg/kg once a week i.v.): body weight gain was comparable to vehicle | body weight gain (side effect profile) ([2]; 20 mg/kg once a week i.v.): body weight gain was comparable to vehicle
